From patent US20230404958A1, “AGENT FOR […] DAMAGE INDUCED BY RHABDOMYOLYSIS” (Niigata University, priority 2021, published 2023)

How the values were obtained:
megalin (binding to Hx) = megalin (binding to Hx) (Rattus norvegicus, UniProt P98158); settings: 1 mg of cilastatin injected into buffer (200 μL) in advance; FIG. 2-1
Excerpt: (§1) Binding specificity between megalin and each ligand (myoglobin, α1M, and Hx) and the possible binding inhibition by cilastatin were verified using the quartz crystal microbalance (QCM) method by reference to the method described in PTL 2.
(§2) For the ligands to be verified, myoglobin (LifeSpan Biosciences Inc., Rat […] Native Protein, LS-G11201) and Hx (Sino Biological Inc., Rat Hemopexin/HPX protein (His Tag 81025-R08H)) were used. […]
(§3) After each of the ligand- or BSA-immobilized quartz crystal sensor was mounted in the measurement instrument AFFINIX® Q8 (Initium Inc.) and the frequency was confirmed to be stable, 8 μL of a 0.1 mg/mL solution of megalin purified from Sprague-Dawley (SD) rat kidneys according to the method of Orlando et al. was injected and frequency was measured with time.
(§4) More specifically, the megalin solution was reacted with each of the ligand-immobilized quartz crystal sensors placed under the water surface with 200 μL of buffer, and the frequency was measured.
(§5) Additionally, 1 mg of cilastatin was injected into buffer in advance, each of the ligand-immobilized quartz crystal sensors was mounted in the measurement instrument, and after the frequency was confirmed to be stable, the megalin solution was injected and frequency was measured with time, whereby the antagonistic activity of cilastatin against the binding of each ligand to megalin was analyzed. […]

[1] = target: megalin (binding to myoglobin) (Rattus norvegicus, UniProt P98158); settings: 1 mg of cilastatin injected into buffer (200 μL) in advance; FIG. 2-1
Excerpt: as §1, §2, §3, §4, §5

megalin (binding to α1M) = megalin (binding to α1M) (Rattus norvegicus, UniProt P98158); settings: 1 mg/200 μL of cilastatin injected into buffer in advance; FIG. 2-2
Excerpt: as §1

[2] = tested on: uptake of each ligand into kidney tissues through megalin; settings: cilastatin sodium 400 mg/kg intraperitoneally, urine collected 3 hours
Description: Cilastatin was administered to mice and changes in concentrations of each ligand in urine were observed.
Five mice (male, aged 12 weeks C57BL/6) were intraperitoneally administered with 400 mg/kg (diluted in 100 μL of normal saline, cilastatin-treated group) of cilastatin sodium (Sigma-Aldrich Japan K.K., C5743), and then put in a metabolic cage for 3 hours to collect urine, and the urines of 5 mice were combined. Additionally, 100 μL of normal saline was administered to another group of 5 mice (control group), and the same experiment as above was conducted.
Proteins were isolated from the obtained urine samples by electrophoresis (SDS-polyacrylamide gel), reductively alkylated (using dithiothreitol and iodoacetamide), digested with trypsin, and the obtained peptides were extracted to obtain a solid.
To the obtained solid, 15 μL of 0.3% formic acid (FA) was added, shaken for 5 minutes, sonicated for 1 minute, and shaken again for 5 minutes. The resultant mixture was spun down, applied to a membrane filter having a pore diameter of 0.45 μm (ULtra free-MC, HV, 0.45 μm, Millipore), centrifuged at 10,000 rpm for 5 minutes, and the sample passed through the filter was subjected to LCMS analysis.
AnaLyst® TF1.6 (AB SCIEX) was used as an LCMS/MS data acquisition and analysis software, and the obtained raw data were converted to a peak list file (mgf file format), whereby MS/MS Ion Search (MIS search) was conducted using Matrix Science Mascot daemon, Mascot server 2.2.1. The sequence data base used was Uniprot, Swiss-Prot. Significance threshold was set to 0.05 (false discovery rate of less than 5%), and the proteins having 2 or more peptides exceeding the identification standard were listed as identified proteins.
Raw data were acquired 2 times per sample at LCMS to cover the issue of analysis reproducibility at LCMS, and the peak list files obtained from the 2 runs were combined and analyzed using Mascot (Ohara et al., 2018, PLoS One, vol. 13, 1, e0204160).
To the proteins identified in common in 2 groups when compared, the spectral count method was used, which is a label-free comparative, semiquantitative analysis method utilizing a principle that a large number of peptide fragments will be identified in those expressed at high levels, resulting in the increase in the number of MS/MS. In other words, the proteins identified in both of the cilastatin-treated group and control group were calculated for an SpC/L ratio (spectral abundance factor: SAF) of the cilastatin-treated group/control group, and the proteins having an SpC/L ratio of 2.0 or more were listed as the proteins abundant in urine of the cilastatin-treated group.

[3] = tested on: myoglobin uptake into kidney tissues; settings: rhabdomyolysis model mice; 24 hours after glycerol dosing; anti-myoglobin immunostaining; FIG. 5
Description: In line with Test Example 1, 50% glycerol was administered to C57BL/6 (male, aged 10-12 weeks), thereby constructing rhabdomyolysis model mice.
Twenty-four hours after glycerol dosing, a portion containing a kidney pedicle was sliced to 3 mm thickness from the right kidney and fixed with 4% paraformaldehyde phosphate buffer.

[4] = tested on: rhabdomyolysis model mice; settings: 400 mg/kg intraperitoneally; 24 hours after glycerol administration; vs normal saline control group; FIG. 1
Description: Serum potassium, which elevates when a renal function is reduced, was measured to verify whether the onset of renal injuries in rhabdomyolysis model mice is inhibited by cilastatin administration.
To C57BL/6 (male, aged 10-12 weeks), 5 mL/kg of a solution of 50% volume/volume glycerol (FUJIFILM Wako Pure Chemical Corporation)/PBS was prepared, and the solution was intramuscularly injected to the right hind limb, thereby constructing rhabdomyolysis nephropathy models. The administered animals were divided into 2 groups (6 mice per group), and intraperitoneally administered with a) 400 mg/kg (diluted in 100 μL of normal saline) of cilastatin (Sigma-Aldrich Inc.) or b) 100 μL of normal saline as a control.
The serum was stored at −80° C. until analysis and the measurement of serum potassium was conducted by Oriental Yeast Co., Ltd.

[5] = cilastatin-treated group/control group, pooled from 5 mice

Sequence of megalin (binding to myoglobin) (P98158 26-4660): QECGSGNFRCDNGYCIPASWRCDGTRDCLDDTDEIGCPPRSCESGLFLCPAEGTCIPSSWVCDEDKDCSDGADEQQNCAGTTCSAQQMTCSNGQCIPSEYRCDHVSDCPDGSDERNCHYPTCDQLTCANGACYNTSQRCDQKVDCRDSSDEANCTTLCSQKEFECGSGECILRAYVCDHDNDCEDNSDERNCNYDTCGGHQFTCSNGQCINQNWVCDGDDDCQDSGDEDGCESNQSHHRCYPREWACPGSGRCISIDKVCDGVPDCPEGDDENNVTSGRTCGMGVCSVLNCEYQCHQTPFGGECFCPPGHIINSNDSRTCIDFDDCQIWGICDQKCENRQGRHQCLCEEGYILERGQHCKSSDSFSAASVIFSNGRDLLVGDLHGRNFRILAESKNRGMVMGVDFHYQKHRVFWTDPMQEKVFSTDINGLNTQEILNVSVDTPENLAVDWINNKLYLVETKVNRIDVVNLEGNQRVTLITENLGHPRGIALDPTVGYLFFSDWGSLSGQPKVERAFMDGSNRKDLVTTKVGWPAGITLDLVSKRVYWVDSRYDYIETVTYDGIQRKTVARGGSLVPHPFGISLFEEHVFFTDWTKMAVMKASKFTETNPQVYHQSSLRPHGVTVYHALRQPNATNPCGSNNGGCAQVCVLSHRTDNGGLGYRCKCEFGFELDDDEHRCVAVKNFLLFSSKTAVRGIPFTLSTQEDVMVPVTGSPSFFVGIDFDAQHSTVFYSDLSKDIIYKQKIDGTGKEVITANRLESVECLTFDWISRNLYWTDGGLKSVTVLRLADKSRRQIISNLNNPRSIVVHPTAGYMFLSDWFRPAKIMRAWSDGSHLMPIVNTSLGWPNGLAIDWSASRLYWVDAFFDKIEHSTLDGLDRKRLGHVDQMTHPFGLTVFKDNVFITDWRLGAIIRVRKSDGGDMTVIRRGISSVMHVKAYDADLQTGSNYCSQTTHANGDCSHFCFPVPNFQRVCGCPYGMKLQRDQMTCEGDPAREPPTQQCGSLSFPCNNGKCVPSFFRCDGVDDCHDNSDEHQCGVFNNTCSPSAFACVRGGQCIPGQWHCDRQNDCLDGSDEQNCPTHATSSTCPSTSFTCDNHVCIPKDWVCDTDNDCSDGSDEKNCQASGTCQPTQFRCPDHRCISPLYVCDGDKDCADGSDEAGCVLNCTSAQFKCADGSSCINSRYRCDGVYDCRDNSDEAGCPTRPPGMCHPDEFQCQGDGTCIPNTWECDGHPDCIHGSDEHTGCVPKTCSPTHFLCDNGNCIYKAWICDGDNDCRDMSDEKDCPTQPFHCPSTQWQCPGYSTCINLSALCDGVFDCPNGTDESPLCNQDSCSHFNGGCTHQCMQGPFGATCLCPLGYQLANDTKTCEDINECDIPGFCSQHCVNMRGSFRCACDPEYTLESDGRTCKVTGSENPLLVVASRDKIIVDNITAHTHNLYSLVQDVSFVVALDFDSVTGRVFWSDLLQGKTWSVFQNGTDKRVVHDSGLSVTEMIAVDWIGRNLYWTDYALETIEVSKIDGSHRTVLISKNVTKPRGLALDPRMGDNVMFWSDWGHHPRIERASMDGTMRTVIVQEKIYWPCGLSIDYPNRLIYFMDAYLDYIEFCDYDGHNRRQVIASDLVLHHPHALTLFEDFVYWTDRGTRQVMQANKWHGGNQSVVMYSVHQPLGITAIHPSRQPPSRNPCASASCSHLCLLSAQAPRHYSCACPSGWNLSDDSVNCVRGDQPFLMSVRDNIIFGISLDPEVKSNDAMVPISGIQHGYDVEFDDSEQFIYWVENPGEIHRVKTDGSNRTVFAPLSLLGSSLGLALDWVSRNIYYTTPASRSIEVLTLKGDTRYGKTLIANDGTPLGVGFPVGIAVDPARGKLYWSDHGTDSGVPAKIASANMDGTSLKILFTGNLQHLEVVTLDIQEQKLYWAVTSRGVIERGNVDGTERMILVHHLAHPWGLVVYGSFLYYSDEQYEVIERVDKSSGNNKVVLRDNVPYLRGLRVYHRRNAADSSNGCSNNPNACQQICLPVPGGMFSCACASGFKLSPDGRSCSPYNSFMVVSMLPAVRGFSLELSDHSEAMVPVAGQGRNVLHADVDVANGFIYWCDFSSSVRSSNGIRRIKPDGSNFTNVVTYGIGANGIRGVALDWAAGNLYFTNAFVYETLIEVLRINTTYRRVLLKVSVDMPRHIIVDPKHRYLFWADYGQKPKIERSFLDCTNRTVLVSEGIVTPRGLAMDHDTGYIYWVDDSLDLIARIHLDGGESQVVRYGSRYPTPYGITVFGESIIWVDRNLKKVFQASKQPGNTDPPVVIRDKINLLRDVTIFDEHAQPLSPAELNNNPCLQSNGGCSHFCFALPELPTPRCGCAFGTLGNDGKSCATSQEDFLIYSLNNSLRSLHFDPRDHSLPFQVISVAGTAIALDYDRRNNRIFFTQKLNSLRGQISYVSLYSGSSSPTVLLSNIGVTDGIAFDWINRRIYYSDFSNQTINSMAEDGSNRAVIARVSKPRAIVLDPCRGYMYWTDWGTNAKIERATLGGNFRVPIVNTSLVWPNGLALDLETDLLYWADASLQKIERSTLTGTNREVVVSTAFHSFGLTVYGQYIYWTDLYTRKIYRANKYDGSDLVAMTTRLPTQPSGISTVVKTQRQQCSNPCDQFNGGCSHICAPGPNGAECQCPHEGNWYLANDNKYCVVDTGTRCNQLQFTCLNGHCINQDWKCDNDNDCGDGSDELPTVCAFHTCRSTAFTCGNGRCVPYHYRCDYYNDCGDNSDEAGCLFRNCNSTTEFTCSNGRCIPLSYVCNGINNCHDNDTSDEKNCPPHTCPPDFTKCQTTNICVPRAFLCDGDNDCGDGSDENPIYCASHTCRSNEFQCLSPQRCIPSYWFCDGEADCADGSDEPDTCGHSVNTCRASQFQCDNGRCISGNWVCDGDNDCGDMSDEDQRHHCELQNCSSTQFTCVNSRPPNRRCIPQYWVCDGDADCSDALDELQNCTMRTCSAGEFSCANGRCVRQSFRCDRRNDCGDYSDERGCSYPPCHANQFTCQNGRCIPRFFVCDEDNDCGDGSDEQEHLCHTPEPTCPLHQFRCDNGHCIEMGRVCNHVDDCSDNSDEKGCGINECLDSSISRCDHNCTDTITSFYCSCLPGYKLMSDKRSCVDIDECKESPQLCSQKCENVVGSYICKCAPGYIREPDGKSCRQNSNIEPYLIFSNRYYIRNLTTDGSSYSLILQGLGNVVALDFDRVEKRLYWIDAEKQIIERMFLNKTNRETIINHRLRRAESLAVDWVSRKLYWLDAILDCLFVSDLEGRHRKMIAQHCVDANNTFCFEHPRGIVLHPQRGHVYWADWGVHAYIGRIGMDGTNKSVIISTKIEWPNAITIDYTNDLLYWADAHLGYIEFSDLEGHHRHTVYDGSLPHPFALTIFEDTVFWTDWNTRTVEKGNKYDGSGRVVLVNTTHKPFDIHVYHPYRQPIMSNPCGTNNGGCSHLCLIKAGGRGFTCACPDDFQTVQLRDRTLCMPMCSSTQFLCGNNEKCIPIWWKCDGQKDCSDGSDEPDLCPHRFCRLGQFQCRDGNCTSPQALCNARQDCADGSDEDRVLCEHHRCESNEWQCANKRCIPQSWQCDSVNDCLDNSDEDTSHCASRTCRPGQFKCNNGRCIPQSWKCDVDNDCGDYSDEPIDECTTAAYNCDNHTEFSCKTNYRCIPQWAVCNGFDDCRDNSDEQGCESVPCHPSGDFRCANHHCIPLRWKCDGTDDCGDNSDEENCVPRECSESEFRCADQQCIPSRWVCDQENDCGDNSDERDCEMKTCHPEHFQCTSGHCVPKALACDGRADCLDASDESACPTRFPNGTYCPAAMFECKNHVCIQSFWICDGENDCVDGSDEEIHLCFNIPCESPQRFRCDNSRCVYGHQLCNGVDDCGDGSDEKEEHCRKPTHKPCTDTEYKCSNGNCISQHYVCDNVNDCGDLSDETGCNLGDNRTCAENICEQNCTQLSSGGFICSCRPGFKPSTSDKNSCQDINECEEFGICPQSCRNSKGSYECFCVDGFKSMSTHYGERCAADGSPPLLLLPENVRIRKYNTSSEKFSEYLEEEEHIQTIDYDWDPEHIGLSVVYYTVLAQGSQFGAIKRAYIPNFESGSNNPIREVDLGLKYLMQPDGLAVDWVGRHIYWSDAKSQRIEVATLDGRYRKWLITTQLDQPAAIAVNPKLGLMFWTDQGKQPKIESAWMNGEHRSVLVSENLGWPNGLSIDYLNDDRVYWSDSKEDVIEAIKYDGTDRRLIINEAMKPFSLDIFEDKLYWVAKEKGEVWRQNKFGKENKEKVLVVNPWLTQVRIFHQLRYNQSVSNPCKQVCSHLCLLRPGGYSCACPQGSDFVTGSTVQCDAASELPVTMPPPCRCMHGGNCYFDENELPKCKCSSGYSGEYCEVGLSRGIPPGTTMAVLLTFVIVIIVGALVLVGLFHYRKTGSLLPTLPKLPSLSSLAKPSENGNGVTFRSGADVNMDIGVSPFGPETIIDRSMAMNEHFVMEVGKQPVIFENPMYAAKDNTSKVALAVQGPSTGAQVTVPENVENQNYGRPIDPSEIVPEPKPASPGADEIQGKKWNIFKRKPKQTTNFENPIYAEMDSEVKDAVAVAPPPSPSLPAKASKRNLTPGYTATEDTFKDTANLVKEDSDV
Sequence of megalin (binding to Hx) (P98158 26-4660): as above
Sequence of megalin (binding to α1M) (P98158 26-4660): as above

**Q.** Which “drop of quartz crystal signals on adding megalin to Hx-immobilized sensor (megalin-Hx binding)” value (megalin (binding to Hx)) does the source give for `CC1(C)C[C@@H]1C(=O)N/C(=C\CCCCSC[C@H](N)C(=O)O)C(=O)O` [cilastatin, (Z)-7-[[(R)-2-Amino-2-carboxyethyl]thio]-2-[[[(S)-2,2-dimethylcyclopropyl]carbonyl]amino]-2-heptenoic acid] here?
**A.** inhibited

**Q.** What about the “drop of quartz crystal signals on adding megalin to myoglobin-immobilized sensor (megalin-myoglobin binding)” value [1] of the same molecule?
**A.** inhibited

**Q.** What about the “drop of quartz crystal signals on adding α1M to megalin-immobilized sensor (megalin-α1M binding)” value (megalin (binding to α1M)) of the same molecule?
**A.** inhibited

**Q.** What about the “number of urinary proteins having an SpC/L ratio of the cilastatin-treated group/control group of 2.0 or more” value [2] of the same molecule?
**A.** 63 kinds

**Q.** And the “SpC/L ratio, urinary Albumin” value [2, 5]?
**A.** 1.10

**Q.** What about the “SpC/L ratio, urinary Clusterin” value [2, 5] of the same molecule?
**A.** 0.73

**Q.** What about the “SpC/L ratio, urinary Transthyretin” value [2, 5] of the same molecule?
**A.** 1.00

**Q.** What about the “SpC/L ratio, urinary Vitamin D-binding protein” value [2, 5] of the same molecule?
**A.** 0.80

**Q.** What about the “amounts of myoglobin taken up into kidney tissues” value [3] of the same molecule?
**A.** reduced

**Q.** What about the serum potassium [4] of the same molecule?
**A.** lower values than the control group
